Assays:
[1] = target: T1, hAT1R (Homo sapiens, UniProt P30556); assay: BRET Gq biosensor assay, agonist response, HEK293 cells; assay type: cell-based; settings: section of the 42nd table directly before the BRET P63 section
T1 sequence (P30556 1-359): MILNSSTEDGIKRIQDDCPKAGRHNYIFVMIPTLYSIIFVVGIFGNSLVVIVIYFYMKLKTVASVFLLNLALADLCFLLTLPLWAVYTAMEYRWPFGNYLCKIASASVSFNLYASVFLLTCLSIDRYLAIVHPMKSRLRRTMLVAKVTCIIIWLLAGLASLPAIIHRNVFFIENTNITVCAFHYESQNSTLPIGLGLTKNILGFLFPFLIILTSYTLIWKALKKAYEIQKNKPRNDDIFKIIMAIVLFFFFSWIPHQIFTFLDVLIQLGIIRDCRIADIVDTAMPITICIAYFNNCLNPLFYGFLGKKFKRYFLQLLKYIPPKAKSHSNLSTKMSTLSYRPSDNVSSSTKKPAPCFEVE
Summary of the method: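 HEK293 cells co-transfected with signal-peptide-optimized hAT1R plus Gαq-Rluc, Gβ1 and GFP-Gγ1, assayed 48 h later in Tyrode's buffer pH 7.4. Coelenterazine (2 μM final) added, then compound; BRET2 (515/410 nm) read after 5 min at room temperature. EC50 by 4-parameter fit, normalized to unstimulated (0%) and maximal AngII (100%).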

[2] = target: T1, hAT1R; assay: BRET β-arrestin2 biosensor assay, higher receptor expression (hAT1R 5 ng/well), HEK293 cells; assay type: cell-based; settings: for EC50: High AT1R Expression
[3] = target: T1, hAT1R; assay: cell-based; settings: section of the 42nd table ending at r951, example numbering restarts after the DiscoveRx section; read-out: β-arrestin2 EC50
[4] = target: T2, AGTR1 (Homo sapiens, UniProt P30556); assay: DiscoveRx β-arrestin2 recruitment assay (enzyme complementation, Pathunter CHO-K1 AGTR1 β-arrestin cell line); assay type: cell-based; settings: DiscoveRx β-arrestin2 recruitment
T2 construct: host or cells: Pathunter CHO-K1 AGTR1 β-arrestin cell line (CHO-K1)
T2 sequence (P30556 1-359): T1 sequence (P30556 1-359)
Summary of the method: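 CHO-K1 cells expressing AGTR1 with β-arrestin2 enzyme-complementation reporter, plated 14-16 h ahead in 1% serum medium, then exposed to compounds for 90 min at 37° C. Chemiluminescence read after 1 h detection. EC50 (agonist) or IC50 (antagonist) from 4-parameter logistic fit; activity as percentage of All maximal effect.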

[5] = target: T1, hAT1R; assay: cell-based; settings: agonist mode; for EC50: read-out: BRET P63 EC50

SMILES | EC50 [1] [µM] | BRET β-Arrestin2 High AT1R Expression Ymax (%) [2] [%] | EC50 [2] [µM] | EC50 [3] [µM] | EC50 [4] [µM] | DiscoveRx β-arrestin2 Ymax (%) ([4]; maximal response) | EC50 [5] [µM] | DiscoveRx β-arrestin2 Ymax (%) [4] [%] | BRET P63 Ymax [5] [%]
CCCCc1nc(Cl)c(C(=O)O)n1Cc1ccc(-c2cc(-c3c[nH]c4ccccc34)ccc2-c2nn[nH]n2)cc1 [Example 391] | 0.181 | 78.3 | 0.0117 | 0.011 | 0.0458 | 23.3 | > 100 |  | 
CCCc1nc(CC)c(C(=O)O)n1Cc1ccc(-c2cc(-c3ccccc3)ccc2-c2nn[nH]n2)cc1 [Example 396, 1-((6′-(2H-tetrazol-5-yl)-[1,1′:3′,1″-terphenyl]-4-yl)methyl)-4-ethyl-2-propyl-1H-imidazole-5-carboxylic acid] | 0.274 | 88.8 | 0.0064 | 0.0141 | 0.005 | 57.8 | > 100 |  | 
CCCCc1nc(Cl)c(C(=O)O)n1Cc1ccc(-c2cc(-c3ccccc3)ccc2-c2noc(=O)[nH]2)cc1 [Example 404, 2-butyl-4-chloro-1-((6′-(5-oxo-4,5-dihydro-1,2,4-oxadiazol-3-yl)-[1,1′:3′,1″-terphenyl]-4-yl)methyl)-1H-imidazole-5-carboxylic acid] | 0.0704 | 89.7 | 0.0143 | 0.0694 | 0.0096 | 38.6 | > 10 |  | 
CCCCc1nc(Cl)c(C(=O)O)n1Cc1ccc(-c2cc(-c3ccccc3)ccc2C(=O)O)cc1 [Example 410, 2-butyl-1-((6′-carboxy-[1,1′:3′,1″-terphenyl]-4-yl)methyl)-4-chloro-1H-imidazole-5-carboxylic acid] | > 100 | 69.7 | 0.0821 | 0.0982 | 0.0269 | 41.9 | > 10 |  | 
CCCCc1nc(Cl)c(C(=O)O)n1Cc1ccc(-c2cc(C3CCCCC3)ccc2-c2nn[nH]n2)cc1 [Example 424, 2-butyl-4-chloro-1-((5′-cyclohexyl-2′-(2H-tetrazol-5-yl)-[1,1′-biphenyl]-4-yl)methyl)-1H-imidazole-5-carboxylic acid] | 2.79 | 76.7 | 0.0678 | 0.0353 | 0.0993 | 28.6 | > 100 |  | 
CCCCC(=O)N(Cc1ccc(-c2cc(-c3cc(C)ccn3)ccc2-c2nn[nH]n2)cc1)[C@H](C(=O)O)C(C)C [Example 445] | 0.14 | 91.3 | 0.0098 | 0.036 | 0.0377 |  | 0.103 | 61.2 | 24.0
